Assay results reported in patent EP2439195B1, “NAPHTHALENE CARBOXAMIDE DERIVATIVES AS INHIBITORS OF PROTEIN KINASE AND HISTONE DEACETYLASE, PREPARATION METHODS AND USES THEREOF” (Shenzhen Chipscreen Biosciences, Ltd., priority 2009, dated 2010).

What was measured:
A549 = assay: Tumor cell proliferation (MTS), A549; type: cell-based; conditions: Homo sapiens; A549, 72 hours; read-out: Gl50 µM in A549
Procedure: (§1) Tumor cells were trypsinized and plated into 96-well plates at 3,000 per well and incubated in complete medium with 10% FBS for 24 hours. Compounds to be tested and vehicle control were added, and the final concentration of compound is in the range of 100 nmol/L to 100 µmol/L. The compounds were incubated for 72 hours in complete medium. The MTS reagent (Promega) was added according to the instruction, incubated for 2 hours at 37°C in CO2 incubator. Then absorbance at 490nm is read using an ELISA plate reader.

Bel-7402 = assay: Tumor cell proliferation (MTS), Bel-7402; type: cell-based; conditions: Homo sapiens; Bel-7402, 72 hours; read-out: Gl50 µM in Bel-7402
Procedure: as §1

A-498 = assay: Tumor cell proliferation (MTS), A-498; type: cell-based; conditions: Homo sapiens, A498; A-498, 72 hours; read-out: Gl50 µM in A-498
Procedure: as §1

MCF-7 = assay: Tumor cell proliferation (MTS), MCF-7; type: cell-based; conditions: Homo sapiens, MCF7; MCF-7, 72 hours; read-out: Gl50 µM in MCF-7
Procedure: as §1

HCT-8 = assay: Tumor cell proliferation (MTS), HCT-8; type: cell-based; conditions: Homo sapiens; HCT-8, 72 hours; read-out: Gl50 µM in HCT-8
Procedure: as §1

total HDAC enzyme = assay: In vitro total HDAC enzyme activity (HDAC Fluorimetric Assay/Drug Discovery Kit, HeLa cell nuclear extract); type: biochemical
human PDGFRβ = target: T1, human PDGFRβ (Homo sapiens, UniProt P09619); assay: PDGF dependent cell proliferation (MTS); type: cell-based; conditions: PDGFRβ NIH-3T3 cells, PDGF BB (50ng/ml), 72 hours, serum-free medium; read-out: Gl50 nM (PDGF ligand-dependent cell proliferation)
T1 construct: expressed in transfected cells

HUVEC cells = assay: VEGF dependent cell proliferation (MTS); type: cell-based; conditions: Homo sapiens, VEGF 165 (50ng/ml), 72 hours, serum-free medium, read-out: Gl50 nM (VEGF ligand-dependent cell proliferation)
Class I HDAC = assay: HDAC subtype selectivity reporter gene assay (P21 reporter, HeLa cells); type: cell-based; conditions: Homo sapiens; 10µM; HeLa cells, 24 hours; read-out: Class I HDAC (P21 reporter assay) Fold Induction at 10µM
How it was run: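 HeLa cells transiently transfected with a luciferase reporter driven by a p21 promoter or response element, with a cotransfected GFP plasmid for normalisation. Compounds or DMSO added 24 h post-transfection; luciferase measured in lysates after a further 24 h.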

T1 sequence (P09619 33-1106): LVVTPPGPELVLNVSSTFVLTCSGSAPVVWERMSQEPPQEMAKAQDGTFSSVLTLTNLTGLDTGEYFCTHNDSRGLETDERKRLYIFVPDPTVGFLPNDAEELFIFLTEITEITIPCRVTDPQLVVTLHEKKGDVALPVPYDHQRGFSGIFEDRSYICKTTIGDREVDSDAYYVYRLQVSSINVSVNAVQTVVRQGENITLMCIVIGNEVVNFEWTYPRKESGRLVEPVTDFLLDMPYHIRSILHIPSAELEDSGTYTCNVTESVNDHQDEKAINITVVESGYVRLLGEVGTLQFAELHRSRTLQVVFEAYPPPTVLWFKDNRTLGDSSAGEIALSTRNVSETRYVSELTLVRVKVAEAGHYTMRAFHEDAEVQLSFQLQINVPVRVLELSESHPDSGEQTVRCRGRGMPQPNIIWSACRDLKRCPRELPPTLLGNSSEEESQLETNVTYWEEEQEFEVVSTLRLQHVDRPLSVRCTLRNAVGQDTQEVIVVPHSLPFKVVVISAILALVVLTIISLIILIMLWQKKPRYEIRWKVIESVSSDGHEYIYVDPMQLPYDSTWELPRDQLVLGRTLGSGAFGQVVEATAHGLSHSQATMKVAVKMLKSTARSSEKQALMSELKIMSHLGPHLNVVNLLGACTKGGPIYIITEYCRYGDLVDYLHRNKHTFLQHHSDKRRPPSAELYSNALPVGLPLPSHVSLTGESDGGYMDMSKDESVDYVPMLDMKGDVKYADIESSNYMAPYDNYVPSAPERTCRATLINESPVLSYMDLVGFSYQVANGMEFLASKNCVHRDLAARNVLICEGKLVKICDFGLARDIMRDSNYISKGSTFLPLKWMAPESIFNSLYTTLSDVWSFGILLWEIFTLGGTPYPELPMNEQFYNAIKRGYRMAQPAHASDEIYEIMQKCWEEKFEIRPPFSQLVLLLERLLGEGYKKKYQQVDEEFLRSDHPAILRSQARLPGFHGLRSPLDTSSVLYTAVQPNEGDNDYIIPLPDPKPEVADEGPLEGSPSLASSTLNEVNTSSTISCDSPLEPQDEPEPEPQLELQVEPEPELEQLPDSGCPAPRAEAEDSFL

| SMILES | IC50 (A549) | IC50 (Bel-7402) | IC50 (A-498) | IC50 (MCF-7) | IC50 (HCT-8) | % inhibition of total HDAC enzyme activity at 30µM (total HDAC enzyme) | IC50 (human PDGFRβ) | IC50 (HUVEC cells) | fold induction at 10 µM (Class I HDAC) |
| --- | --- | --- | --- | --- | --- | --- | --- | --- | --- |
| COc1ccc2c(Oc3ccc4c(C(=O)NCc5ccc(C(=O)Nc6ccccc6N)cc5)cccc4c3)ccnc2c1 [Compound 33, N-(4-((2-aminophenyl)carbamoyl)benzyl)-6-(7-methoxyquinolin-4-yloxy)-1-naphthamide] | 2100 nM | 2800 nM | 1900 nM | 2000 nM | 1500 nM | 39.1% | 300 nM | 8 nM | 2.8 |
| COc1ccc2c(Oc3ccc4c(C(=O)Nc5ccccc5N)cccc4c3)ccnc2c1 [Compound 31, N-(2-aminophenyl)-6-(7-methoxyquinolin-4-yloxy)-1-naphthamide] | 17300 nM | 30000 nM | 9500 nM | 10200 nM | 6600 nM | 10.1% | 46 nM | 5 nM | 1.6 |
